Values joined by “and” are separate entries in the source; they are usually repeats but may differ in a detail not shown here. Equal values may be shown once. Toxic doses and inconclusive results are not listed. Cut-off read from the data, not from the text of the source: active = T/C of 150% or more; inactive = T/C below 125%.
Tested on: L1210 leukemia ip in BDF1 mice, survival T/C
Experiment: NCI In Vivo Anticancer Drug Screen. Data for tumor model L1210 Leukemia (intraperitoneal) in B6D2F1 (BDF1) mice
Settings: endpoint: mean survival time, higher = longer survival
Summary of the method: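 Tumor was transplanted into mice, which were then dosed with test compound or vehicle alone. Survival was recorded for each group, and the treated figure was expressed relative to the control figure.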

[1] = dose: 100.0 mg/kg/injection, schedule: Q04DX003 (ip), vehicle: saline with Tween-80
[2] = dose: 200.0 mg/kg/injection, schedule: Q04DX003 (ip), vehicle: saline with Tween-80
[3] = dose: 400.0 mg/kg/injection, schedule: Q04DX003 (ip), vehicle: saline with Tween-80
[4] = dose: 100.0 mg/kg/injection, schedule: Q01DX001 (ip), vehicle: other
[5] = dose: 200.0 mg/kg/injection, schedule: Q01DX001 (ip), vehicle: other
[6] = dose: 400.0 mg/kg/injection, schedule: Q01DX001 (ip), vehicle: other

Measured: T/C

C/C(O)=C(\C#N)c1ccc(Cl)cc1
inactive: dose: 12.5 mg/kg/injection, schedule: Q01DX001 (ip), vehicle: carboxymethylcellulose (CMC) 100 % of control | dose: 12.5 mg/kg/injection, schedule: Q04DX003 (ip), vehicle: carboxymethylcellulose (CMC) 100 % of control and 104 % of control | dose: 25.0 mg/kg/injection, schedule: Q01DX001 (ip), vehicle: carboxymethylcellulose (CMC) 108 % of control | dose: 25.0 mg/kg/injection, schedule: Q01DX009 (ip), vehicle: carboxymethylcellulose (CMC) 103 % of control and 113 % of control | dose: 25.0 mg/kg/injection, schedule: Q04DX002 (ip), vehicle: carboxymethylcellulose (CMC) 99 % of control and 100 % of control | dose: 25.0 mg/kg/injection, schedule: Q04DX003 (ip), vehicle: carboxymethylcellulose (CMC) 98 % of control and 90 % of control | dose: 50.0 mg/kg/injection, schedule: Q01DX001 (ip), vehicle: carboxymethylcellulose (CMC) 103 % of control and 111 % of control | dose: 50.0 mg/kg/injection, schedule: Q01DX009 (ip), vehicle: carboxymethylcellulose (CMC) 96 % of control and 100 % of control | dose: 50.0 mg/kg/injection, schedule: Q04DX002 (ip), vehicle: carboxymethylcellulose (CMC) 102 % of control and 103 % of control | dose: 50.0 mg/kg/injection, schedule: Q04DX003 (ip), vehicle: carboxymethylcellulose (CMC) 94 % of control and 98 % of control | dose: 100.0 mg/kg/injection, schedule: Q01DX001 (ip), vehicle: carboxymethylcellulose (CMC) 97 % of control and 102 % of control | dose: 100.0 mg/kg/injection, schedule: Q01DX009 (ip), vehicle: carboxymethylcellulose (CMC) 94 % of control | dose: 100.0 mg/kg/injection, schedule: Q04DX002 (ip), vehicle: carboxymethylcellulose (CMC) 93 % of control and 90 % of control

CCNc1cc(Cl)nc(N)n1
inactive: dose: 100.0 mg/kg/injection, schedule: Q01DX009 (ip), vehicle: saline with Tween-80 92 % of control | [1] 105 % of control | dose: 200.0 mg/kg/injection, schedule: Q01DX009 (ip), vehicle: saline with Tween-80 101 % of control | [2] 98 % of control | dose: 400.0 mg/kg/injection, schedule: Q01DX009 (ip), vehicle: saline with Tween-80 104 % of control | [3] 104 % of control

O=C(O)c1ccccc1NC(=S)c1ccccc1
inactive: dose: 25.0 mg/kg/injection, schedule: Q04DX002 (ip), vehicle: other 96 % of control | dose: 50.0 mg/kg/injection, schedule: Q04DX002 (ip), vehicle: other 96 % of control | dose: 100.0 mg/kg/injection, schedule: Q04DX002 (ip), vehicle: other 93 % of control and 104 % of control

NCC(O)c1ccc(OCc2ccccc2)cc1 (configuration not stated)
inactive: dose: 100.0 mg/kg/injection, schedule: Q01DX001 (ip), vehicle: saline 94 % of control | dose: 200.0 mg/kg/injection, schedule: Q01DX001 (ip), vehicle: saline 103 % of control | dose: 400.0 mg/kg/injection, schedule: Q01DX001 (ip), vehicle: saline 108 % of control

O=C1NC(=O)C(c2ccccc2)C1=O (configuration not stated)
inactive: dose: 50.0 mg/kg/injection, schedule: Q01DX Z (ip), vehicle: other 105 % of control | dose: 100.0 mg/kg/injection, schedule: Q01DX Z (ip), vehicle: other 96 % of control | dose: 200.0 mg/kg/injection, schedule: Q01DX Z (ip), vehicle: other 91 % of control | dose: 400.0 mg/kg/injection, schedule: Q01DX Z (ip), vehicle: other 89 % of control

Cc1ccc(S(=O)(=O)NC(CO)C(=O)O)cc1 (configuration not stated)
inactive: dose: 37.5 mg/kg/injection, schedule: Q01DX009 (ip), vehicle: saline 96 % of control | dose: 75.0 mg/kg/injection, schedule: Q01DX001 (ip), vehicle: saline 103 % of control | dose: 75.0 mg/kg/injection, schedule: Q01DX009 (ip), vehicle: saline 98 % of control | dose: 75.0 mg/kg/injection, schedule: Q04DX003 (ip), vehicle: saline 102 % of control | dose: 150.0 mg/kg/injection, schedule: Q01DX001 (ip), vehicle: saline 92 % of control | dose: 150.0 mg/kg/injection, schedule: Q01DX009 (ip), vehicle: saline 106 % of control | dose: 150.0 mg/kg/injection, schedule: Q04DX003 (ip), vehicle: saline 103 % of control | dose: 300.0 mg/kg/injection, schedule: Q01DX001 (ip), vehicle: saline 98 % of control | dose: 300.0 mg/kg/injection, schedule: Q04DX003 (ip), vehicle: saline 102 % of control

Cc1nc2nc3c(ncn3C3OC(CO)C(O)C3O)c(=O)n2nc1C (configuration not stated)
inactive: dose: 100.0 mg/kg/injection, schedule: Q01DX005 (ip), vehicle: saline 102 % of control | dose: 200.0 mg/kg/injection, schedule: Q01DX005 (ip), vehicle: saline 92 % of control

CCCCCNC(=O)CC(O)C(=O)NCCCCC (configuration not stated)
inactive: [4] 87 % of control | [5] 98 % of control | [6] 96 % of control

COC(=O)C1C2C(C)CC3(CC12C)OCCO3 (configuration not stated)
inactive: dose: 100.0 mg/kg/injection, schedule: Q01DX009 (ip), vehicle: saline sonified 92 % of control | dose: 100.0 mg/kg/injection, schedule: Q04DX003 (ip), vehicle: Klucel (hydroxypropylcellulose) (HPC) 102 % of control | dose: 200.0 mg/kg/injection, schedule: Q01DX009 (ip), vehicle: saline sonified 97 % of control | dose: 200.0 mg/kg/injection, schedule: Q04DX003 (ip), vehicle: Klucel (hydroxypropylcellulose) (HPC) 93 % of control | dose: 400.0 mg/kg/injection, schedule: Q01DX009 (ip), vehicle: saline sonified 92 % of control | dose: 400.0 mg/kg/injection, schedule: Q04DX003 (ip), vehicle: Klucel (hydroxypropylcellulose) (HPC) 86 % of control

COc1cc(N)c(OC)nn1
inactive: [4] 105 % of control | [5] 96 % of control | [6] 93 % of control

C[Si](C)(C)c1cccc(-c2ccccc2)c1
inactive: dose: 25.6 mg/kg/injection, schedule: Q04DX002 (ip), vehicle: saline with Tween-80 93 % of control | dose: 64.0 mg/kg/injection, schedule: Q04DX002 (ip), vehicle: saline with Tween-80 104 % of control | [1] 101 % of control | dose: 160.0 mg/kg/injection, schedule: Q04DX002 (ip), vehicle: saline with Tween-80 97 % of control | [2] 92 % of control | dose: 400.0 mg/kg/injection, schedule: Q04DX002 (ip), vehicle: saline with Tween-80 97 % of control | [3] 101 % of control

CCCCCC(/C=N/N=C(N)N)=N\N=C(N)N
inactive: dose: 15.0 mg/kg/injection, schedule: Q01DX Z (ip), vehicle: carboxymethylcellulose (CMC) 98 % of control | dose: 30.0 mg/kg/injection, schedule: Q01DX Z (ip), vehicle: carboxymethylcellulose (CMC) 97 % of control | dose: 30.0 mg/kg/injection, schedule: Q01DX Z (oral), vehicle: carboxymethylcellulose (CMC) 98 % of control | dose: 60.0 mg/kg/injection, schedule: Q01DX Z (ip), vehicle: carboxymethylcellulose (CMC) 95 % of control | dose: 60.0 mg/kg/injection, schedule: Q01DX Z (oral), vehicle: carboxymethylcellulose (CMC) 87 % of control | dose: 120.0 mg/kg/injection, schedule: Q01DX Z (oral), vehicle: carboxymethylcellulose (CMC) 91 % of control | dose: 240.0 mg/kg/injection, schedule: Q01DX Z (oral), vehicle: carboxymethylcellulose (CMC) 95 % of control

SC1CC[N-]CC1.SC1CC[N-]CC1.[Cl][Pt+2][Cl]
inactive: dose: 25.0 mg/kg/injection, schedule: Q01DX009 (ip), vehicle: water 96 % of control | dose: 50.0 mg/kg/injection, schedule: Q01DX009 (ip), vehicle: water 101 % of control | dose: 100.0 mg/kg/injection, schedule: Q01DX009 (ip), vehicle: water 96 % of control | dose: 100.0 mg/kg/injection, schedule: Q04DX003 (ip), vehicle: water 101 % of control | dose: 200.0 mg/kg/injection, schedule: Q01DX009 (ip), vehicle: water 98 % of control | dose: 200.0 mg/kg/injection, schedule: Q04DX003 (ip), vehicle: water 97 % of control

Source: PubChem BioAssay AID248 (DTP/NCI, 2004)
